Literature values in EP2042172A1, “Use of tocopherol derivatives as inhibitors of the notch signalling pathway” (Inserm, priority 2007, dated 2009).

Test system: axonal growth
Settings: even in the presence of inhibitory signals (Hanbali et al., 2004); cited from earlier work

In the case of `CC1=C(CCCCCCCCCCCCCCCO)C(C)(C)CCC1=O` [tCFA15], the “axonal growth in vitro” value is given as “promote axonal growth in vitro”.
